US9394308B2, “Inhibiting the transient receptor potential A1 ion channel” (Merck Sharp & Dohme Corp., priority 2013, dated 2016)
Entries after “also recorded” stand apart in the source; their conditions may differ.

Columns and labels:
[1] = Rodent acute tolerability test, liver function tests (Example 5); assay type: in vivo, Female Sprague Dawley rats; details: rat; for LFT blood levels ALT and AST (in words): intravenous bolus, about 24 hours post dose; for serum biomarkers of hepatotoxicity (in words): in vivo
Experimental: Compounds of Formula (I) were assessed for acute tolerability in a rodent model at dose levels ranging from 100-200 mg/kg based upon the minimum efficacious dose of each compound. Female Sprague Dawley rats were administered up to a 10 mL/kg dose volume of each compound in 0.9% saline at appropriate concentrations as an intravenous bolus via the lateral tail vein. The animals were observed immediately post dose and for up to twenty four hours post dose and clinical observations were recorded. Additionally, approximately twenty four hours post dose animals were euthanized and blood taken for serum chemistry analysis with a focus on liver function tests (LFTs). The maximum tolerated single dose and LFT results are summarized in Table 3 in FIG. 3, where ( ? ) indicates blood levels of markers for potential liver damage within normal range and (↑) indicates blood levels of markers for potential liver damage elevated above normal range. Referring to the data in Table 3, LFT blood levels of markers for potential liver damage remained within normal range for the compounds of Formula (I), while LFTs were elevated for Comparator Compounds including 5-10 fold elevation above normal for ALT and AST blood levels observed upon administration of Comparator Compound 1.

[2] = Aqueous solubility (Example 2); assay type: physicochemical; details: method of Example 2
Experimental: Compounds of Formula (I) where R^1 is —CH2—R^1a, and R^1a is phosphate, have suitable levels of aqueous solubility for incorporation in a pharmaceutical composition formulated for intravenous administration. Unless otherwise indicated, the aqueous solubility of compounds of Formula (I) in Tables in FIG. 1 was measured using the procedure of Example 2 (Kerns, E. H., Journal of Pharmaceutical Sciences 2001, 90, 1838-1858, incorporated herein by reference). Solubility data was obtained by this method for compounds of Formula (I) and included in FIG. 1. The chromatographic data was performed using (type of HPLC). The column used was an Xbridge Shield RP18 with the following column dimensions: 4.6×30 mm, 3.5 μm. The mobile phase consisted of deionized water (MPA) with trifluoroacetic acid added in at 0.1% (v/v) (MPC) and HPLC-grade acetonitrile (MPB). The mobile phase flow rate was 2.5 mL/min with the column and sampling operating at ambient temperature. UV detection was set to 280 nm. For all samples used for solubility determination, the mobile phase gradient used was as follows in Table 1g below.
Stock solutions of compounds of Formula (I) where R^1 is —CH2—R^1a, and R^1a is phosphate, were prepared in water at 20 mg/mL. Stock solutions of the compounds of Formula (I), wherein R^1 is hydrogen, were prepared in dimethyl acetamide at 20 mg/mL. […]

CFA Cold Allodynia = experiment: Rodent cold plate pain model, Complete Freund's Adjuvant (Example 4); assay type: in vivo; details: rat
Experimental: CFA-induced pain test method reported in del Camino et al., J. Neurosci., 30 (45):15165-15174, incorporated herein by reference in its entirety. Briefly, the right hind paw is sensitized to cold temperature (allodynic) by administering 0.1 mL of Complete Freund's Adjuvant (CFA) to that paw. Two to four days later, the time it takes for the animal to lift its CFA-injected paw from the cold surface is recorded compared to its un-injected normal left hind paw. […] To avoid tissue damage, the maximum cut-off time is five minutes. Animals that are allodynic (average PWL to the first three pain behaviors<150 seconds for the CFA-injected hind paw: ˜≧50% difference between the normal and CFA-injected paw) are included in the study and subsequently randomized across treatment groups. The following day, the animals in some groups are dosed with a test compound under blinded conditions. Following the one to two hour pre-treatment time, the post-dose PWL readings are taken again. The efficacy of the drug treatment is assessed by comparing the PWL in the drug treatment animals to those that receive the vehicle.

Compound | LFT blood levels ALT and AST (in words) [1] | serum biomarkers of hepatotoxicity (in words) [1] | other results
C[C@H]1CCCN1c1ncc(-c2cncc(N(COP(=O)(O)O)C(=O)[C@H](C)n3cnc4c3c(=O)n(C)c(=O)n4C)n2)cn1 [((S)-2-(1,3-dimethyl-2,6-dioxo-1,2,3,6-tetrahydro-7H-purin-7-yl)-N-(6-(2-((S)-2-methylpyrrolidin-1-yl)pyrimidin-5-yl)pyrazin-2-yl)propanamido)methyl dihydrogen phosphate] | did not result in abnormally high levels of LFT compounds ALT or AST |  | 
C[C@H]1CCCN1c1ccc(-c2csc(NC(=O)Cn3cnc4c3c(=O)n(C)c(=O)n4C)n2)cc1F [Comparator Compound 1, reference compound] |  | elevate the serum biomarkers of hepatotoxicity | 
C[C@H]1CCCN1c1ncc(-c2cccc(NC(=O)Cn3cnc4c3c(=O)n(C)c(=O)n4C)n2)cn1 [Comparator Compound 2, reference compound] |  | did not elevate the serum biomarkers of hepatotoxicity | aqueous solubility (in words) [2]: undesirably low aqueous solubility
C[C@@H](C(=O)N(COP(=O)([O-])O)c1cccc(-c2cnc(N3CCC[C@H]3C(F)(F)F)nc2)n1)n1cnc2c1c(=O)n(C)c(=O)n2C.[Na+] [Compound 1-A, ((S)-2-(1,3-dimethyl-2,6-dioxo-1,2,3,6-tetrahydro-7H-purin-7-yl)-N-(6-(2-((S)-2-(trifluoromethyl)pyrrolidin-1-yl)pyrimidin-5-yl)pyridin-2-yl)propanamido)methyl dihydrogen phosphate] | did not result in abnormally high levels of LFT compounds ALT or AST |  | effect on cold allodynia (in words) (CFA Cold Allodynia; CFA cold plate model): analgesic effect on cold allodynia; also recorded: reversal of CFA Cold Allodynia; Paw Withdrawal Latency (PWL) (in words) (CFA Cold Allodynia; i.p. administration, CFA model, cold plate 1° C.): increased rodent Paw Withdrawal Latency
C[C@@H](C(=O)N(COP(=O)(O)O)c1cncc(-c2cnc(N3CCC[C@H]3C(F)(F)F)nc2)n1)n1cnc2c1c(=O)n(C)c(=O)n2C [Compound 2-E, ((S)-2-(1,3-dimethyl-2,6-dioxo-1,2,3,6-tetrahydro-7H-purin-7-yl)-N-(6-(2-((S)-2-(trifluoromethyl)pyrrolidin-1-yl)pyrimidin-5-yl)pyrazin-2-yl)propanamido)methyl dihydrogen phosphate] | did not result in abnormally high levels of LFT compounds ALT or AST |  | 
C[C@@H](C(=O)N(COP(=O)(O)O)c1cncc(-c2cnc(N3CCCC3(C)C)nc2)n1)n1cnc2c1c(=O)n(C)c(=O)n2C [Compound 3-J, (S)-(2-(1,3-dimethyl-2,6-dioxo-1,2,3,6-tetrahydro-7H-purin-7-yl)-N-(6-(2-(2,2-dimethylpyrrolidin-1-yl)pyrimidin-5-yl)pyrazin-2-yl)propanamido)methyl dihydrogen phosphate] | did not result in abnormally high levels of LFT compounds ALT or AST |  | 
